Experimental data taken from patent publication US20140194460A1, “TREATMENT OF ENDOMETRIOSIS” (Ferring B.V., priority 2009, published 2014).
Several values for one entry are separate records, joined by “and”; a condition that tells them apart may be missing. Equal entries are not always repeated. Entries after “also recorded” stand apart in the source; their conditions may differ.

Assays:
Type in all cases: in vivo, human
endometriosis = experiment: ASRM classification of endometriosis before and after treatment (pilot study); conditions: per patient (9 women with hyperprolactinemia and endometriosis); oral 25 then 50 then 75 micrograms/day, total 18-20 weeks; stage IV most severe, stage I least severe
Procedure: (§1) 1] Laparoscopy 1: an endometriotic implant was biopsied, and a second endometriotic implant, similar to the biopsied one, was marked with a non-absorbable suture. Pictures were taken before and after surgery from all individuals. The marked implant was photographed (e.g. FIG. 1A). The biopsy sample was analysed as described below. An assessment of ASRM stage pre-treatment was taken. The PRL level (μg/mL) and Ca125 level (IU/ml) for each patient was measured pre-treatment, by known methods.
3] Laparoscopy 2: in which the second (marked) implant was biopsied. The marked implant was photographed (e.g. FIG. 1B). The biopsy sample was analysed as described below. A second assessment of the ASRM stage post-treatment was completed. The PRL level (μg/mL) and Ca125 level (IU/ml) for each patient was measured post-treatment, by known methods.
Operative L1 and L2 were performed by two experienced surgeons using modern laparoscopic equipment and the surgeries were recorded by video. The severity of the disease was established according to the Revised American Society for Reproductive Medicine classification of endometriosis: […] (16). During L1, 4-6 index peritoneal red lesions were identified before surgical manipulation started. Half of the index lesions were surgically removed and stored as described below. […]

PRL = experiment: Serum PRL level before and after treatment; conditions: per patient; after oral 25/50/75 micrograms/day titrated treatment, 18-20 weeks
Procedure: 1] Laparoscopy 1: an endometriotic implant was biopsied, and a second endometriotic implant, similar to the biopsied one, was marked with a non-absorbable suture. Pictures were taken before and after surgery from all individuals. The marked implant was photographed (e.g. FIG. 1A). The biopsy sample was analysed as described below. An assessment of ASRM stage pre-treatment was taken. The PRL level (μg/mL) and Ca125 level (IU/ml) for each patient was measured pre-treatment, by known methods. 3] Laparoscopy 2: in which the second (marked) implant was biopsied. The marked implant was photographed (e.g. FIG. 1B). The biopsy sample was analysed as described below. A second assessment of the ASRM stage post-treatment was completed. The PRL level (μg/mL) and Ca125 level (IU/ml) for each patient was measured post-treatment, by known methods. During the four month treatment period, i.e. between L1 and L2, patients were monthly monitored in our clinic to assess severity of common side effects of Drd2-A like dizziness, nausea and vomiting. During these visits, blood was drawn for subsequent EIA measurement of serum PRL, a marker of the level of Drd2 activity, to monitor compliance with taking the medication.

Ca125 = Ca125 level before and after treatment; conditions: per patient; after oral 25/50/75 micrograms/day titrated treatment, 18-20 weeks
Procedure: as §1, with “methods. 3] Laparoscopy 2: in which the second (marked) implant was biopsied. The marked implant was photographed (e.g. FIG. 1B). The biopsy sample was analysed as described below. A second assessment of the ASRM stage post-treatment was completed. The PRL level (μg/mL) and Ca125 level (IU/ml) for each patient was measured post-treatment, by known methods.” for “methods.”

[1] = system: peritoneal red endometriotic lesions; experiment: Macroscopic analysis: appearance and surface area of index endometriotic lesions at L1 and L2
Procedure: Operative L1 and L2 were performed by two experienced surgeons using modern laparoscopic equipment and the surgeries were recorded by video. The severity of the disease was established according to the Revised American Society for Reproductive Medicine classification of endometriosis: […] (16). During L1, 4-6 index peritoneal red lesions were identified before surgical manipulation started. Half of the index lesions were surgically removed and stored as described below. The remaining half index lesions were left behind and marked with an unabsorbable silk knot sature approximately 1 cm away from them. All non-index lesions were subsequently removed and discarded. […] Thus the study continued with 10 patients after L1. One patient discontinued treatment. At the end of treatment, the L2 was performed and video recorded. During surgery the silk knot was identified in all patients, the suture removed and the area containing the index lesion left behind surgically excised. If significant adhesion formation was detected, lysis of adhesion was performed. The index lesions removed at L1 and L2 were fixed in formalin (approximately 75% of each lesion tissue) for histological verification and descriptive analysis of endometriosis. Formalin fixed samples were also employed for immunohistochemical analysis and subsequent quantification of vascularisation, vessel immatureness, Drd2 expression, cell proliferation, VEGFR2 expression and VEGFR2 activation by techniques well known in the art. The remaining portion of each lesion tissue (25%) was homogenized in Trizol and cryopreserved at −80° C. for subsequent Superarray QF-PCR analysis. All laparoscopies were recorded with a Karl Storz (Germany) videocamera. […] Eligible frames were captured, copied to a PC computer and opened with ImagePro Plus Version 6.03 (Media Cybernetics, Silver Spring, Md., USA) software for image processing. The size of the black or grey cap served as a reference to measure the changes in surface induced by quinagolide at L2 over the lesions left behind during L1.

[2] = system: vessels in endometriotic lesions; experiment: Vascularisation of biopsy samples by CD31 immunofluorescence/immunohistochemistry; conditions: after versus before treatment, FIG. 2
Procedure: The vascularisation effects of the quinagolide were assessed by immunofluorescence/immunohistochemistry on the biopsy samples taken before and after treatment, by methods well known in the art. The CD31(+) signal was used which specifically stains for vessels; vessels are stained brown. In order to quantify vascularisation at least 10 random 40× microscopic fields per sample were photographed and analysed using Image pro-plus software. Areas of interest corresponding to vessels (brown stain) were segmented and marked; and those corresponding to non vascularised areas were segmented and marked differently. The marked image was then analysed to show the % vascularised area per tissue, and the results for samples before and after treatment are shown in FIG. 2.

[3] = system: proliferating cells (Ki67+) in endometriotic implants; experiment: Proliferative activity by Ki-67 immunocytochemistry; conditions: after versus before treatment, FIG. 3
Procedure: Immunocytochemistry with Ki-67 (monoclonal IgG1 DAKO Corp., Denmark) antibody was performed in order to evaluate the proliferative activity of the samples, by methods well known in the art. […] The images obtained show proliferating cells as positive for Ki67 with nuclear (brown/black) staining. At least 10 random 40× microscopic fields per sample were photographed and analysed. Areas of interest corresponding to proliferating cells (Ki67+) were segmented and marked, and counted.

[4] = system: dopamine receptor 2 (DAR2); experiment: DAR2 expression in endometriotic lesions by staining; conditions: after versus before treatment, FIG. 5
Procedure: DAR2 expression in human endometriotic lesions was measured by staining, by methods well known in the art (FIG. 5, bottom).

endometriotic lesions = experiment: Histological analysis and Superarray QF-PCR expression analysis of index lesions removed at L1 and L2
Procedure: At the end of treatment, the L2 was performed and video recorded. During surgery the silk knot was identified in all patients, the suture removed and the area containing the index lesion left behind surgically excised. If significant adhesion formation was detected, lysis of adhesion was performed. The index lesions removed at L1 and L2 were fixed in formalin (approximately 75% of each lesion tissue) for histological verification and descriptive analysis of endometriosis. Formalin fixed samples were also employed for immunohistochemical analysis and subsequent quantification of vascularisation, vessel immatureness, Drd2 expression, cell proliferation, VEGFR2 expression and VEGFR2 activation by techniques well known in the art. The remaining portion of each lesion tissue (25%) was homogenized in Trizol and cryopreserved at −80° C. for subsequent Superarray QF-PCR analysis.

[5] = L2 versus L1, results not shown

Expression of the dopamine receptor 2 (DAR2) in endometriotic lesions [4]: increases the expression
SMILES: CCCN1C[C@H](NS(=O)(=O)N(CC)CC)C[C@H]2Cc3c(O)cccc3C[C@@H]21 [quinagolide, (3R,4aR,10aS)-3-(Diethylsulfamoylamino)-6-hydroxy-1-propyl-3,4,4a,5,10,10a-hexahydro-2H-benzo[g]quinoline]
ASRM post treatment (endometriosis): Stage II; also recorded: Stage I; also recorded: Stage III
PRL level after treatment (PRL): <0.6 μg/mL (2×) and 15.1 μg/mL and 14 μg/mL and 6.5 μg/mL and <0.1 μg/mL and 6.4 μg/mL and 1.1 μg/mL and 28.6 μg/mL
Ca125 level after treatment (Ca125): 25.9 IU/ml and 15.5 IU/ml and 18 IU/ml and 21.1 IU/ml and 22 IU/ml and 24.1 IU/ml and 20.4 IU/ml and 29.9 IU/ml and 24.9 IU/ml
Decrease of mean total surface area (size) of index lesions, L2 versus L1 ([1]; 9 patients, after 18-20 weeks treatment): 68%
Mean of the total surface area of index lesions measured during L2 ([1]; 9 patients, vanished lesions counted as 100% size reduction, L1 value 36.09±20.56 mm^2, p<0.05): 11.57±12.54 mm^2
Lesions vanishing ([1]; after 18-20 weeks treatment): 35%
Number of recovered index lesions showing reduction in size compared to L1 ([1]; out of 15 lesions recovered at L2): 13
Number of red index lesions vanished at L2 ([1]; out of 23 red index lesions labelled at L1): 8
Number of patients with all index endometriotic lesions absent during L2 ([1]; out of the 9 patients): 2
Number of patients with vanished lesions combined with persisting lesions decreased in size ([1]; out of the 9 patients): 3
Vascularisation of the endometriotic sample (% vascularised area, CD31) [2]: significant decrease in vascularisation
Cell proliferation (Ki-67 positive cells per microscopic field) [3]: trend towards reduced cell proliferation
PAI-1 expression (endometriotic lesions; L2 lesion): down-regulated
Histological analysis of lesions (endometriotic lesions; L2 lesions): signs of tissue degeneration
Expression of Drd2 and antiangiogenic cytokine CXCL10 (endometriotic lesions; [5]): upreguilating
Expression of VEGF/VEGFR2 and proangiogenic cytokines CCL2, RUNX1 and AGGF1 (endometriotic lesions; [5]): downregulated
